Experimental findings from paper PMC5569483, “Screening and evolution of a novel protist xylose isomerase from the termite Reticulitermes speratus for efficient xylose fermentation in Saccharomyces cerevisiae” (Biotechnology for Biofuels, 2017) are described below.

The test system of the experiment is T1, RsXI-C1.
T1 construct: full-length ORF, codon-optimized gene, expressed in S. cerevisiae W600W (strain WR311), crude cell extract
In words: coupled sorbitol dehydrogenase assay, NADH oxidation at […] nm, Lineweaver-Burk. The format is biochemical, uncultured symbiotic protist of Reticulitermes speratus. To be noted: crude cell extract; 100 mM Tris-HCl pH 7.5, 10 mM MgSO4, 0.15 mM NADH, 30 °C, 5–250 mM D-xylose.

Consider `OC1OC[C@@H](O)[C@H](O)[C@H]1O` (stereo partly shown) [xylose], for which the Km came out at 10.5 ± 1.1 mM.
